From the supplement of paper PMC4862054

Assays:
Experiment in all cases: normalised viability (% of control), CellTiter-Blue; higher = more viable cells (about 100 = DMSO control)
Details in all cases: incubation time: 72 h
Hs578T = tested on: Hs578T
Procedure, shortened: (§1)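 384-well plates were pre-loaded with compound in 5 µl medium before 20 µl of breast cancer cell suspension was seeded. Following 72 h incubation, 2.5 µl CellTiter-Blue reagent was added for 2 h at 37 °C. Fluorescence was read at 560/590 nm and plates were normalised to vehicle (100) and a positive kill control (0), checked by Z'-factor. Normalised viability is reported at a single listed concentration of the series.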

HCC1143 = tested on: HCC1143
Procedure, shortened: as §1

HCC1937 = tested on: HCC1937
Procedure, shortened: as §1

CAL-85-1 [1] = tested on: CAL-85-1
Procedure, shortened: as §1

HDQ-P1 [2] = tested on: HDQ-P1
Procedure, shortened: as §1

BT-549 = tested on: BT-549
Procedure, shortened: as §1

CAL-51 [3] = tested on: CAL-51
Procedure, shortened: as §1

CAL-148 [4] = tested on: CAL-148
Procedure, shortened: as §1

MDA-MB-468 = tested on: MDA-MB-468
Procedure, shortened: as §1

CAL-120 = tested on: CAL-120
Procedure, shortened: as §1

MDA-MB-436 = tested on: MDA-MB-436
Procedure, shortened: as §1

MDA-MB-231 = tested on: MDA-MB-231
Procedure, shortened: as §1

MDA-MB-453 = tested on: MDA-MB-453
Procedure: (§2)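 DSRT, CellTiter-Blue viability, 72 h incubation. Signal is normalised to DMSO and benzethonium chloride controls. Value is the normalised response at dose 9.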

CAL-85-1 [5] = tested on: CAL-85-1; remark: listed apart in the source
Procedure: as §2

HDQ-P1 [6] = tested on: HDQ-P1; remark: listed apart in the source
Procedure: as §2

CAL-51 [7] = tested on: CAL-51; remark: listed apart in the source
Procedure: as §2

CAL-148 [8] = tested on: CAL-148; remark: listed apart in the source
Procedure: as §2

DU-4475 = tested on: DU-4475
Procedure: as §2

Row | Structure (SMILES) | normalised viability (MDA-MB-453) | normalised viability (CAL-85-1 [5]) | normalised viability (HDQ-P1 [6]) | normalised viability (CAL-51 [7]) | normalised viability (CAL-148 [8]) | normalised viability (DU-4475) | normalised viability (Hs578T; 100 nM) | normalised viability (HCC1143; 100 nM) | normalised viability (HCC1937; 100 nM) | normalised viability (CAL-85-1 [1]; 10 nM) | normalised viability (HDQ-P1 [2]; 10 nM) | normalised viability (BT-549; 100 nM) | normalised viability (CAL-51 [3]; 10 nM) | normalised viability (CAL-148 [4]; 10 nM) | normalised viability (MDA-MB-468; 100 nM) | normalised viability (CAL-120; 100 nM) | normalised viability (MDA-MB-436; 100 nM) | normalised viability (MDA-MB-231; 100 nM) | other results
1 | Nc1nc(Cl)nc2c1ncn2[C@H]1C[C@H](O)[C@@H](CO)O1 [Cladribine] |  |  |  |  |  |  |  |  |  |  |  |  |  |  |  |  |  |  | normalised viability (Hs578T; 10 nM): 98.4%; normalised viability (HCC1143; 10 nM): 85.5%; normalised viability (HCC1937; 10 nM): 84.8%; normalised viability (CAL-85-1 [1]; 1 nM): 107%; normalised viability (HDQ-P1 [2]; 1 nM): 120%; normalised viability (BT-549; 10 nM): 92%; normalised viability (CAL-51 [3]; 1 nM): 114%; normalised viability (CAL-148 [4]; 1 nM): 97.4%; normalised viability (MDA-MB-468; 10 nM): 104%; normalised viability (CAL-120; 10 nM): 97.4%; normalised viability (MDA-MB-436; 10 nM): 96.9%; normalised viability (MDA-MB-231; 10 nM): 83%
2 | CC[C@]1(O)C[C@@H]2CN(CCc3c([nH]c4ccccc34)[C@@](C(=O)OC)(c3cc4c(cc3OC)N(C)[C@H]3[C@@](O)(C(=O)OC)[C@H](OC(C)=O)[C@]5(CC)C=CCN6CC[C@]43[C@@H]65)C2)C1 [Vinblastine] (1000 nM) | 36.3% | 44.6% | 39.6% | 11.4% | 22.7% | 7.08% |  |  |  |  |  |  |  |  |  |  |  |  | 
3 | Cc1ccc(F)c(NC(=O)Nc2ccc(-c3cccc4[nH]nc(N)c34)cc2)c1 [Linifanib] (1000 nM) | 111% | 96.8% | 120% | 98.1% | 80.2% | 99.5% |  |  |  |  |  |  |  |  |  |  |  |  | 
4 | Clc1ccc(C(c2ccccc2Cl)C(Cl)Cl)cc1 (stereo unspecified) [Mitotane] (10000 nM) | 89.7% | 89.7% | 109% | 109% | 110% | 97.4% |  |  |  |  |  |  |  |  |  |  |  |  | 
5 | C=CC[C@@H]1/C=C(\C)C[C@H](C)C[C@H](OC)[C@H]2O[C@@](O)(C(=O)C(=O)N3CCCC[C@H]3C(=O)O[C@H](/C(C)=C/[C@@H]3CC[C@@H](O)[C@H](OC)C3)[C@H](C)[C@@H](O)CC1=O)[C@H](C)C[C@@H]2OC [Tacrolimus] |  |  |  |  |  |  | 109% | 110% | 93.7% | 101% | 119% | 102% | 101% | 102% | 119% | 110% | 108% | 112% | 
6 | S=c1[nH]cnc2nc[nH]c12 [Mercaptopurine] (10000 nM) | 100% | 80.3% | 90.3% | 75.1% | 86.6% | 102% |  |  |  |  |  |  |  |  |  |  |  |  | 
7 | CS(=O)(=O)c1ccc(C(=O)Nc2ccc(Cl)c(-c3ccccn3)c2)c(Cl)c1 [Vismodegib] |  |  |  |  |  |  | 80.1% | 87.7% | 107% | 114% | 105% | 112% | 103% | 96.8% | 113% | 87.7% | 85.6% | 94% | 
8 | COc1cccc2cc(-c3nc([C@H]4CC[C@H](C(=O)O)CC4)n4ncnc(N)c34)[nH]c12 [OSI-027] |  |  |  |  |  |  | 84.1% | 119% | 84% | 92.8% | 78.5% | 71.9% | 95.4% | 92.6% | 84.4% | 91.9% | 74.1% | 72.1% | 
9 | N#CC[C@H](C1CCCC1)n1cc(-c2ncnc3[nH]ccc23)cn1 [Ruxolitinib] |  |  |  |  |  |  | 79.2% | 107% | 81.1% | 96.4% | 74.4% | 74.5% | 84.9% | 102% | 100% | 97.5% | 94.5% | 90.8% | 
10 | Cc1c2oc3c(C)ccc(C(=O)N[C@@H]4C(=O)N[C@H](C(C)C)C(=O)N5CCC[C@H]5C(=O)N(C)CC(=O)N(C)[C@@H](C(C)C)C(=O)O[C@@H]4C)c3nc-2c(C(=O)N[C@@H]2C(=O)N[C@H](C(C)C)C(=O)N3CCC[C@H]3C(=O)N(C)CC(=O)N(C)[C@@H](C(C)C)C(=O)O[C@@H]2C)c(N)c1=O [Dactinomycin] (1000 nM) | 5.82% | 2.21% | 16.8% | 4.61% | 12% | -0.64% |  |  |  |  |  |  |  |  |  |  |  |  | 
11 | C=CC[C@@H]1/C=C(\C)C[C@H](C)C[C@H](OC)[C@H]2O[C@@](O)(C(=O)C(=O)N3CCCC[C@H]3C(=O)O[C@H](/C(C)=C/[C@@H]3CC[C@@H](O)[C@H](OC)C3)[C@H](C)[C@@H](O)CC1=O)[C@H](C)C[C@@H]2OC [Tacrolimus] (10000 nM) | 98.6% | 100% | 136% | 95% | 115% | 107% |  |  |  |  |  |  |  |  |  |  |  |  | 
